# Reference: ChEMBL document CHEMBL6083219, “Rationally designed febuxostat-based hydroxamic acid and its pH-Responsive nanoformulation elicits anti-tumor activity” (Eur J Med Chem, 2024)
# Activity calls are given as the source filed them. The calls are words filed in the database; no cut-off is given here.
# Columns and labels:
# [1] = system: HL-60; type: functional, cell-based; details: Homo sapiens, HL-60, 48 h
# [2] = system: NCI-H1975; type: functional, cell-based; details: Homo sapiens, NCI-H1975, 48 h
# [3] = molecular target: Xanthine dehydrogenase/oxidase (Bos taurus, UniProt P80457); assay: Inhibition of bovine milk xanthine oxidase
# [4] = system: MDA-MB-231; assay: cells; details: Homo sapiens, MDA-MB-231, 48 h
# Description: Cytotoxicity against human MDA-MB-231 cells incubated for 48 hrs by MTT assay
# [5] = system: Rattus norvegicus; assay: Anti-hyperuricemic activity against potassium oxonate-induced hyperuricemia Wistar rat model assessed as decrease in blood urea level at 10 mg/kg measured after 14 days; type: functional, organism-based; details: time 14.0 day
# [6] = system: Rattus norvegicus; assay: Anti-hyperuricemic activity against potassium oxonate-induced hyperuricemia Wistar rat model assessed as decrease in serum creatinine level at 10 mg/kg measured after 14 days; type: functional, organism-based; details: time 14.0 day
# [7] = system: Rattus norvegicus; assay: Anti-hyperuricemic activity against potassium oxonate-induced hyperuricemia Wistar rat model assessed as decrease in serum uric acid level at 10 mg/kg measured after 14 days; type: functional, organism-based; details: time 14.0 day
# [8] = system: HL-60; assay: Downregulation of mTOR expression level in human HL-60 cells at 0.5 to 2 uM by Western blotting analysis; type: functional, cell-based; details: dose 0.5-2 µM
# Sequence of Xanthine dehydrogenase/oxidase (P80457 whole entry): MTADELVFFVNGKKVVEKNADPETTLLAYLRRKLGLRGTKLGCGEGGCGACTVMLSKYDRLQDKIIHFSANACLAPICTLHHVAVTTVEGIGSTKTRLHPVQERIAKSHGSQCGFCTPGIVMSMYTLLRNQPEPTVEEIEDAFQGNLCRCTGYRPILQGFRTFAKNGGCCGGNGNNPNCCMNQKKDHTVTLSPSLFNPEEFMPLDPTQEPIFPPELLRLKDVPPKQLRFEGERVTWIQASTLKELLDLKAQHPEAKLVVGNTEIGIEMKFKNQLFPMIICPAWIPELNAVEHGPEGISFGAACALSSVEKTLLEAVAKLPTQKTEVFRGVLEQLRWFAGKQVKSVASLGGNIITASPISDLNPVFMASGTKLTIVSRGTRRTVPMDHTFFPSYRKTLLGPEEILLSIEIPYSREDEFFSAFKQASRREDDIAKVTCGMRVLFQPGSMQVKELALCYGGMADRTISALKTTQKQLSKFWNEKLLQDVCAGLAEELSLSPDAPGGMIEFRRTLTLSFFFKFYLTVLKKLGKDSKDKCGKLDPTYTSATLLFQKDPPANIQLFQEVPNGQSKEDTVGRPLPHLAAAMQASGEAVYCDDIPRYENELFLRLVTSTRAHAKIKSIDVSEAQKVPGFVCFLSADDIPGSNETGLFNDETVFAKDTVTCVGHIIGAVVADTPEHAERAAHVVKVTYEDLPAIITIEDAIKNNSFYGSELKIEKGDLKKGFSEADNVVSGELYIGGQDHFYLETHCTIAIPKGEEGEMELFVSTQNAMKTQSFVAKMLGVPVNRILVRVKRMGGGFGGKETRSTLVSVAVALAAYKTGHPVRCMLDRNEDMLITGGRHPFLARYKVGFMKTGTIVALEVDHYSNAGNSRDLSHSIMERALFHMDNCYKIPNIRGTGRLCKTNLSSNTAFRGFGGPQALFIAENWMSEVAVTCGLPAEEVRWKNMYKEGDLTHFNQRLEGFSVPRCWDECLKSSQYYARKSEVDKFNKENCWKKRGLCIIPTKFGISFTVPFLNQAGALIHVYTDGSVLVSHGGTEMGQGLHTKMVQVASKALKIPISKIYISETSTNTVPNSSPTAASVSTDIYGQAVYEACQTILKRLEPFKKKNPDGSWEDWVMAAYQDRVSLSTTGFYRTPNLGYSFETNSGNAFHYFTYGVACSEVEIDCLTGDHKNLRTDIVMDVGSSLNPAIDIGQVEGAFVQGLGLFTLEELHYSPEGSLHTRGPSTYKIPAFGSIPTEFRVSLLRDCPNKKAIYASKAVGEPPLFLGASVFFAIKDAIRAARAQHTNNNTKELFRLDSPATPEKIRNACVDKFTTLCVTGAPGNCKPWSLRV
Structure (SMILES),IC50 [1],IC50 [2],IC50 [3],IC50 [4],Activity [5],Activity [6],Activity [7],Activity [8]
Cc1nc(-c2ccc(OCC(C)C)c(C#N)c2)sc1C(=O)NCCCCCC(=O)Nc1ccccc1N,1.71 µM,18.2 µM,0.7 µM,7.08 µM,–,–,–,–
Cc1nc(-c2ccc(OCC(C)C)c(C#N)c2)sc1C(=O)NCc1ccc(NC(=O)CCCCCC(=O)NO)cc1,18 µM,> 50 µM,> 2 µM,> 50 µM,–,–,–,–
Cc1nc(-c2ccc(OCC(C)C)c(C#N)c2)sc1C(=O)NCc1ccc(NC(=O)CCCCCCC(=O)Nc2ccccc2N)cc1,1.58 µM,9.36 µM,> 2 µM,5.55 µM,–,–,–,–
Cc1nc(-c2ccc(OCC(C)C)c(C#N)c2)sc1C(=O)Nc1ccccc1N,1.26 µM,> 50 µM,0.076 µM,> 50 µM,–,–,–,–
Cc1nc(-c2ccc(OCC(C)C)c(C#N)c2)sc1C(=O)NCc1ccc(C(=O)NCCCCCCC(=O)NO)cc1,0.56 µM,> 50 µM,> 2 µM,9.9 µM,–,–,–,–
Cc1nc(-c2ccc(OCC(C)C)c(C#N)c2)sc1C(=O)NCc1ccc(NC(=O)CCCCCC(=O)Nc2ccccc2N)cc1,11.8 µM,28.3 µM,> 2 µM,19.6 µM,–,–,–,–
Cc1nc(-c2ccc(OCC(C)C)c(C#N)c2)sc1C(=O)NCCCCCC(=O)NO,1.29 µM,6.77 µM,0.0062 µM,6.35 µM,–,–,–,–
Cc1nc(-c2ccc(OCC(C)C)c(C#N)c2)sc1C(=O)NCc1ccc(NC(=O)CCCCCCCCC(=O)Nc2ccccc2N)cc1,4.25 µM,28.8 µM,> 2 µM,3.38 µM,–,–,–,–
Cc1nc(-c2ccc(OCC(C)C)c(C#N)c2)sc1C(=O)NCc1ccc(NC(=O)CCCCCCCC(=O)NO)cc1,> 50 µM,18.7 µM,> 2 µM,31.5 µM,–,–,–,–
Cc1nc(-c2ccc(OCC(C)C)c(C#N)c2)sc1C(=O)O [FEBUXOSTAT],> 100 µM,> 100 µM,–,> 100 µM,Active,Active,Active,–
O=C(CCCCCCC(=O)Nc1ccccc1)NO,–,–,–,–,–,–,–,Active
Cc1nc(-c2ccc(OCC(C)C)c(C#N)c2)sc1C(=O)NO,10.6 µM,> 50 µM,0.0033 µM,> 50 µM,–,–,–,–
Cc1nc(-c2ccc(OCC(C)C)c(C#N)c2)sc1C(=O)NCc1ccc(C(=O)NO)cc1,0.805 µM,11.4 µM,0.021 µM,4.09 µM,–,–,–,–
Cc1nc(-c2ccc(OCC(C)C)c(C#N)c2)sc1C(=O)NCCCCCCC(=O)Nc1ccccc1N,1.54 µM,> 50 µM,0.85 µM,41.1 µM,–,–,–,–
Cc1nc(-c2ccc(OCC(C)C)c(C#N)c2)sc1C(=O)NCc1ccc(NC(=O)CCCCCCCC(=O)Nc2ccccc2N)cc1,1.64 µM,11.2 µM,> 2 µM,3.81 µM,–,–,–,–
Cc1nc(-c2ccc(OCC(C)C)c(C#N)c2)sc1C(=O)NCc1ccc(C(=O)Nc2ccccc2N)cc1,1.01 µM,18.3 µM,> 2 µM,9.63 µM,–,–,–,–
Cc1nc(-c2ccc(OCC(C)C)c(C#N)c2)sc1C(=O)NCc1ccc(C(=O)NCCCCCCC(=O)Nc2ccccc2N)cc1,0.696 µM,> 50 µM,> 2 µM,> 50 µM,–,–,–,–
Cc1nc(-c2ccc(OCC(C)C)c(C#N)c2)sc1C(=O)NCc1ccc(NC(=O)CCCCCCC(=O)NO)cc1,3.42 µM,12.6 µM,> 2 µM,12.4 µM,–,–,–,–
Cc1nc(-c2ccc(OCC(C)C)c(C#N)c2)sc1C(=O)NCc1ccc(NC(=O)CCCCCCCCC(=O)NO)cc1,3.04 µM,8.61 µM,> 2 µM,> 50 µM,–,–,–,–
